Biological target: bovine pancreatic DNase I (Bos taurus, UniProt P00639)
Conditions: for reduction of enzyme activity induced by the addition of salt: 100 mM sodium chloride added to reaction with 40% (v/v) alcohol (FIG. 2); for DNase I activity, % of Standard conditions: alcohol at 40% (v/v) in the Standard reaction, without sodium chloride (FIG. 2)
Description: The enzymatic hydrolysis of calf thymus genomic DNA was assayed using a method modified from that described by Desai and Shankar (Eur. J. Biochem., 2000; 267: 5123-5135). The standard reaction mixture was 0.1 mL volume, containing 30 μg of sonicated native calf thymus genomic DNA (Sigma, St. Louis Mo., #D-3664), in a buffer solution composed of 100 mM Tris HCl(pH 8.0)/10 mM MgSO4/1 mM CaCl2, with appropriately diluted DNase I (usually 0.02-1.0 Enzyme Units, as defined below). The reaction was initiated by the addition of enzyme, with incubation at room temperature for a defined period of time (usually 10-20 minutes), after which the reaction was terminated by rapid sequential addition of 0.1 mL of 1 mg/mL Bovine Serum Albumin (Sigma, #A3803) and 1.0 mL of ice cold 2% (v/v) Perchloric Acid. The terminated reaction mixture was vortex mixed, then chilled on ice for 20-30 minutes, follwed by centrifugation at 16,000×g for 10 minutes at 4 degrees centrigrade. The clarified supernatant contains acid-soluble oligonucleotides liberated by the action of DNase I-like activity, at concentrations determined using absorbance measurements determined in a 1 cm pathlength cell in the Agilent 8453 spectrophotometer (Agilent Technologies, Wilmington Del.). A molar extinction coefficient of 10,000 M^−1cm^−1 was employed for oligonucleotide concentration estimation in the acidic solution. Unit activity under these assay conditions is defined as umol of acid-soluble oligonucleotides generated per minute at 25 degrees centigrade. In the experiments shown in the examples that follow, bovine pancreatic DNase I is employed to illustrate the effects of various manipulations on the activity of this enzyme. Typically, the reaction employs approximately 0.1 enzyme units, as defined by the Kunitz assay, as discussed above (see Kunitz. J. Gen. Physiol. 1950; 33:349-362).
Bovine pancreatic DNase I (Fermentas, #EN0523) was assayed for gDNA hydrolytic activity, as described above, using the Standard reaction conditions, but modified by the inclusion of various quantities of iso-propanol (i-propanol, 2-propanol), with or without the further inclusion of sodium chloride at 100 mM.

Sequence of bovine pancreatic DNase I (P00639 23-282): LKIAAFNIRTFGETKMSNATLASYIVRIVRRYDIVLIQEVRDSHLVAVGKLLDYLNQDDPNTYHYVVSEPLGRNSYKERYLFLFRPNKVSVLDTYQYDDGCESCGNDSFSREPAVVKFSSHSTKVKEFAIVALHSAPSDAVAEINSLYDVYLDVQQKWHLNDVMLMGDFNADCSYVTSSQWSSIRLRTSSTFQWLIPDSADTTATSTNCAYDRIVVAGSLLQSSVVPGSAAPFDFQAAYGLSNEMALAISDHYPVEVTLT

## CCO [Ethanol]
  reduction of enzyme activity induced by the addition of salt: three-fold reduction
  DNase I activity, % of Standard conditions: 40%

## n-propanol
  DNase I activity, % of Standard conditions: about 10%
Alcohol at 40% (v/v) plus 100 mM sodium chloride (FIG. 2)
  DNase I activity, % of Standard reaction conditions: less than 5%

## CC(C)O [i-propanol, iso-propanol]
  reduction of enzyme activity induced by the addition of salt: least prevented the inhibition of the enzyme by salt
  DNase I activity, % of Standard conditions: 40%
20% i-propanol added to solution containing 100 mM sodium chloride (FIG. 1)
  DNase I activity, % of the Standard activity level: 101%
20% i-propanol, no sodium chloride, room temperature (FIG. 1)
  DNase I activity relative to standard conditions: more than doubling the activity
High salt (100 mM sodium chloride) and high alcohol content (FIG. 1)
  DNase I enzyme activity observed: greater than 50%
Higher concentrations of i-propanol (above 20%, up to and above 80%), no sodium chloride (FIG. 1)
  DNase I activity, % of the standard condition: about 50%
